Tests used:
Format in all cases: in vivo
wheat [1] = test: Phytotoxicity applied to wheat (scale 0-5); parameters: key: 0: no phytotoxicity; 1: very slight injury, the minimum that could be observed; 2: less than 10% of leaf surface injured; 3: 10-50% of leaf surface injured; 4: 50-90% of leaf surface injured; 5: plant killed
Method: (§1) The phytotoxicity of a number of tricyclopentyltin compounds and triphenyltin hydroxide on grape vines, wheat and barley was evaluated quantitatively using the following scale:
(§2) If the rating was considered to be somewhere between two integers based on observations of other plants, the lower integer followed by "0.5" was employed as the rating.

wheat [2] = test: Phytotoxicity to host plant in wheat leaf rust test (rating 0-2); parameters: key: 0: indicates no phytotoxicity; 1: indicates that the degree of phytotoxicity was sufficient to make the plant commercially worthless; 2: indicates that the plant was killed; conditions: 300 ppm
Method: (§3) The efficacy of tricyclopentyltin fluoride as a control agent for three different plant fungi (grape downy mildew, apple powdery mildew and wheat leaf rust) was evaluated and compared with the performance of several other tricyclopentyltin compounds. The results of this evaluation are disclosed in the following tables 2, 3 and 4. The phytotoxicity of the various compounds tested was also evaluated at various concentration levels. […] Quantitative ratings for phytotoxicity are given in each of the first three tables. A rating of 0 indicates no phytotoxicity.
(§4) Host plants, (grape, wheat or apple, depending upon the fungus) are sprayed with a water suspension of the test compound and then inoculated with the pathogen. A number of control plants that have not been sprayed are also inoculated. After disease symptoms are well developed on the untreated control plants the test plants are graded for disease control.

[3] = tested on: Grape Downy Mildew (Plasmopara viticola); test: Grape downy mildew control (Procedure 3)
Description: (§5) PROCEDURE 3--Employed Using Grape Downy Mildew (Plasmopara viticola), Wheat Leaf Rust (Puccinia recondita) and Apple Powdery Mildew (Podosphaera leucotricha)
as §4

[4] = tested on: Wheat Leaf Rust (Puccinia recondita); test: Wheat leaf rust control (Procedure 3); conditions: 300 ppm
Description: as §5, §4

Barley = test: Phytotoxicity applied to barley (scale 0-5); parameters: key: 0: no phytotoxicity; 1: very slight injury, the minimum that could be observed; 2: less than 10% of leaf surface injured; 3: 10-50% of leaf surface injured; 4: 50-90% of leaf surface injured; 5: plant killed
Method: as §1, §2

Grape Vines = test: Phytotoxicity applied to grape vines (scale 0-5); parameters: key to Phytotoxicity: 0: no phytotoxicity; 1: very slight injury, the minimum that could be observed; 2: less than 10% of leaf surface injured; 3: 10-50% of leaf surface injured; 4: 50-90% of leaf surface injured; 5: plant killed; conditions: for Phytotoxicity: scale 0-5
Method: as §1, §2

grape = test: Phytotoxicity to host plant in grape downy mildew test (rating 0-2); parameters: key to Phytotoxicity: 0: indicates no phytotoxicity; 1: indicates that the degree of phytotoxicity was sufficient to make the plant commercially worthless; 2: indicates that the plant was killed; conditions: for Phytotoxicity: rating 0-2
Method: as §3, §4

[5] = tested on: Apple Powdery Mildew (Podosphaera leucotricha); test: Apple powdery mildew control (Procedure 3)
Description: as §5, §4

| Molecule | Phytotoxicity (wheat [1]; 75 ppm) | Phytotoxicity (wheat [1]; 300 ppm) | Phytotoxicity (wheat [1]; 1200 ppm) | Phytotoxicity (wheat [2]) | Phytotoxicity (Barley; 38 ppm) | Phytotoxicity (Barley; 150 ppm) | Phytotoxicity (Barley; 600 ppm) | Phytotoxicity (Grape Vines; 75 ppm) | Phytotoxicity (Grape Vines; 300 ppm) | Phytotoxicity (Grape Vines; 1200 ppm) | Phytotoxicity (grape; 75 ppm) | Phytotoxicity (grape; 300 ppm) | % Control ([5]; 75 ppm) [%] | also measured |
| --- | --- | --- | --- | --- | --- | --- | --- | --- | --- | --- | --- | --- | --- | --- |
| [Cl][Sn]([CH]1CCCC1)([CH]1CCCC1)[CH]1CCCC1 [Tricyclopentyltin chloride] | 1 | 3 (10-50% of leaf surface injured) | 5 | 2 | – | – | – | – | – | – | – | – | – | – |
| [F][Sn]([CH]1CCCC1)([CH]1CCCC1)[CH]1CCCC1 [Tricyclopentyltin fluoride] | 0 | 0 | 1.5 | 0 | 0 | 1 | 2 (less than 10% of leaf surface injured) | 0 | 1.5 | 3.5 | 0 | 0 | – | control rating (comparison in words) ([3]; 75 ppm): higher than the two other tricyclopentyltin compounds; activity against representative plant fungi (comparison in words) ([3]; representative plant fungi of Tables 2-4): highest activity against representative plant fungi of all the compounds tested; control of wheat leaf rust (in words) [4]: effectively controlled wheat leaf rust; damage to plants (comparison in words) (Grape Vines; Tables 5-7: grape vines, wheat and barley): least damaging to the plants; phytotoxic effects (in words) (grape; 300 ppm): did not produce any phytotoxic effects; efficacy (comparison in words) ([5]; 75 ppm): considerably higher than the other compounds tested |
| [OH][Sn]([CH]1CCCC1)([CH]1CCCC1)[CH]1CCCC1 [Tricyclopentyltin hydroxide] | 0 | 1 | 2.5 | 0 | 1 | 2 (less than 10% of leaf surface injured) | 3.5 | 1 | 2.5 | 4.5 | 0 | 1 | – | – |
| [OH][Sn]([c]1ccccc1)([c]1ccccc1)[c]1ccccc1 [Triphenyltin hydroxide] | – | – | – | 0 | 1 | 3 (10-50% of leaf surface injured) | 4 (50-90% of leaf surface injured) | 2.5 | 3.5 | 5 | 1 | 1 | 25 | % Control ([3]; 75 ppm): 95%; control rating (comparison in words) ([3]; 75 ppm): higher control rating at this level; % Control ([3]; 300 ppm): 100%; % Control [4]: 25%; phytotoxicity (in words) (grape; 75 ppm): too phytotoxic to be commercially useful |
| Tricyclopentyltin acetate | – | – | – | – | 1 | 2 (less than 10% of leaf surface injured) | 3.5 | 2 (less than 10% of leaf surface injured) | 4 (50-90% of leaf surface injured) | 5 | – | – | 25 | – |
| Tricyclopentyltin benzoate | – | – | – | – | – | – | – | – | – | – | 0 | 1 | – | % Control ([3]; 75 ppm): 50%; % Control ([3]; 300 ppm): 75% |
| Tricyclopentyltin phenoxide | – | – | – | – | – | – | – | – | – | – | – | – | 50 | % Control ([5]; 300 ppm): 83% |

From patent US4191698A, “Tricyclopentyltin fluoride” (priority 1977, dated 1980)
